The text below walks through data of patent US8658666B2, “Substituted imidazoquinolines and imidazonaphthyridines” (3M Innovative Properties Company, priority 2005, dated 2014).

Molecules are shown by their SMILES.

The molecule `CCc1nc2c(N)nc3cc(CCCNC(C)=O)ccc3c2n1CC1CCOCC1` [Example 125, N-{3-[4-amino-2-ethyl-1-(tetrahydro-2H-pyran-4-ylmethyl)-1H-imidazo[4,5-c]quinolin-7-yl]propyl}acetamide] gave a melting point of 209 to 211 °C. For `CCc1nc2c(N)nc3cc(CCC(=O)N(C)C)ccc3c2n1CC1CCOCC1` [Example 129, 3-[4-Amino-2-ethyl-1-(tetrahydro-2H-pyran-4-ylmethyl)-1H-imidazo[4,5-c]quinolin-7-yl]-N,N-dimethylpropanamide] the value was 219 to 220 °C; for `CC(C)(O)Cn1c(CO)nc2c(N)nc3cc(CCC(=O)N4CCOCC4)ccc3c21` [Example 112, 1-[4-Amino-2-(hydroxymethyl)-7-(3-morpholin-4-yl-3-oxopropyl)-1H-imidazo[4,5-c]quinolin-1-yl]-2-methylpropan-2-ol], 223 to 225 °C. Regarding `CN(C)C(=O)CCc1ccc2c(c1)nc(N)c1nc(CO)n(CC(C)(C)O)c12` [Example 111, 3-[4-Amino-2-(hydroxymethyl)-1-(2-hydroxy-2-methylpropyl)-1H-imidazo[4,5-c]quinolin-7-yl]-N,N-dimethylpropanamide], the melting point lay within 228 to 230 °C. As for `CCOCc1nc2c(N)nc3cc(CCCCNC(C)=O)ccc3c2n1CCCOC(C)C` [Example 5, N-{4-[4-Amino-2-ethoxymethyl-1-(3-isopropxypropyl)-1H-imidazo[4,5-c]quinolin-7-yl]butyl}acetamide], the melting point lay within 122 to 124 °C. In the case of `COCc1nc2c(N)nc3cc(CCS(C)(=O)=O)ccc3c2n1CC(C)(C)O` [Example 104, 1-{4-Amino-2-(methoxymethyl)-7-[2-(methylsulfonyl)ethyl]-1H-imidazo[4,5-c]quinolin-1-yl}-2-methylpropan-2-ol], the melting point fell in the range of 210 to 212 °C.

Take `CCOC(=O)/C=C/c1ccc2c(c1)nc(N)c1nc(CC)n(CC3CCOCC3)c12` [Example 131, Ethyl (2E)-3-[4-amino-2-ethyl-1-(tetrahydro-2H-pyran-4-ylmethyl)-1H-imidazo[4,5-c]quinolin-7-yl]prop-2-enoate]: the melting point was in the range of 209 to 210 °C.

For the molecule `CCOCc1nc2c(N)nc3cc(NC(=O)C(C)C)ccc3c2n1CCCOC(C)C` [Example 3, N-[4-Amino-2-ethoxymethyl-1-(3-isopropoxypropyl)-1H-imidazo[4,5-c]quinolin-7-yl]-2-methylpropanamide], the melting point lay in the range of 214 to 215 °C.

On to `CC(C)Cn1cnc2c(N)nc3ccc(CCO)cc3c21` [Example 96, 2-(4-Amino-1-isobutyl-1H-imidazo[4,5-c]quinolin-8-yl)ethanol], for which the melting point was in the range of 214 to 216 °C. The molecule `CCc1nc2c(N)nc3cc(CCCNC(=O)NC(C)C)ccc3c2n1CC1CCOCC1` [Example 126, N-{3-[4-amino-2-ethyl-1-(tetrahydro-2H-pyran-4-ylmethyl)-1H-imidazo[4,5-c]quinolin-7-yl]propyl}-N′-isopropylurea] had a melting point of 213 to 216 °C.

As for `CCOCc1nc2c(N)nc3cc(/C=C/S(=O)(=O)c4ccccc4)ccc3c2n1CCCOC(C)C` [Example 2, 2-Ethoxymethyl-1-(3-isopropoxypropyl)-7-[(E)-2-(phenylsulfonyl)ethenyl]-1H-imidazo[4,5-c]quinolin-4-amine], the melting point fell in the range of 188.5 to 190 °C. For `COCCc1nc2c(N)nc3ccc(CCC(=O)N4CCOCC4)cc3c2n1CCCN1CCCC1=O` [Example 101, 1-{3-[4-Amino-2-(2-methoxyethyl)-8-(3-morpholin-4-yl-3-oxo-propyl)-1H-imidazo[4,5-c]quinolin-1-yl]propyl}pyrrolidin-2-one] the value was 168 to 170 °C; for `COCCc1nc2c(N)nc3ccc(CCC(=O)N(C)C)cc3c2n1CCCN1CCCC1=O` [Example 102, 3-{4-Amino-2-(2-methoxyethyl)-1-[3-(2-oxo-pyrrolidin-1-yl)propyl]-1H-imidazo[4,5-c]quinolin-8-yl}-N,N-dimethylpropanamide], 184 to 186 °C; for `CCOC(=O)CCc1ccc2c(c1)nc(N)c1nc(CC)n(CC3CCOCC3)c12` [Example 132, Ethyl 3-[4-amino-2-ethyl-1-(tetrahydro-2H-pyran-4-ylmethyl)-1H-imidazo[4,5-c]quinolin-7-yl]propanoate], 172 to 173 °C.

`CCOCc1nc2c(N)nc3cc(NS(=O)(=O)CC)ccc3c2n1CC(C)(C)O` [Example 4, N-[4-Amino-2-ethoxymethyl-1-(2-hydroxy-2-methylpropyl)-1H-imidazo[4,5-c]quinolin-7-yl]ethanesulfonamide] yielded a melting point of 124 to 127 °C. In turn, `CCOCc1nc2c(N)nc3cc(CCCN4CCOCC4)ccc3c2n1CC(C)(C)O` [Example 135, 1-[4-Amino-2-(ethoxymethyl)-7-(3-morpholin-4-ylpropyl)-1H-imidazo[4,5-c]quinolin-1-yl]-2-methylpropan-2-ol] displayed a melting point of 132 to 133 °C. `CCc1nc2c(N)nc3cc(CCC(=O)N(C)C)ccc3c2n1CC(C)(C)O` [Example 100, 3-[4-Amino-2-ethyl-1-(2-hydroxy-2-methylpropyl)-1H-imidazo[4,5-c]quinolin-7-yl]-N,N-dimethylpropanamide] gave a melting point of 234 to 237 °C. `COCc1nc2c(N)nc3cc(CCC(=O)N4CCOCC4)ccc3c2n1CC(C)(C)O` [Example 106, 1-[4-Amino-2-(methoxymethyl)-7-(3-morpholin-4-yl-3-oxopropyl)-IH-imidazo[4,5-c]quinolin-1-yl]-2-methylpropan-2-ol]: the melting point was 215 to 217 °C. `CCOCc1nc2c(N)nc3cc(CCCO)ccc3c2n1CC(C)(C)O` [Example 134, 3-[4-Amino-2-(ethoxymethyl)-1-(2-hydroxy-2-methylpropyl)-1H-imidazo[4,5-c]quinolin-7-yl]propan-1-ol] yielded a melting point of 177 to 178 °C. In turn, `CC(C)(O)Cn1cnc2c(N)nc3cc(CCS(C)(=O)=O)ccc3c21` [Example 99] gave a melting point of 269 to 271 °C. For `COCc1nc2c(N)nc3cc(CCC(=O)N(C)C)ccc3c2n1CC(C)(C)O` [Example 108, 3-[4-Amino-1-(2-hydroxy-2-methylpropyl)-2-(methoxymethyl)-1H-imidazo[4,5-c]quinolin-7-yl]-N,N-dimethylpropanamide] the value was 142 to 145 °C; for `COc1cccc(CNCc2ccc3nc(N)c4ncn(CC(C)C)c4c3c2)c1` [Example 127, 1-Isobutyl-8-{[(3-methoxybenzyl)amino]methyl}-1H-imidazo[4,5-c]quinolin-4-amine], 125 to 126 °C. With `CCOCc1nc2c(N)nc3cc(CCC(=O)N4CCOCC4)ccc3c2n1CC(C)(C)O` [Example 14, 1-[4-Amino-2-(ethoxymethyl)-7-(3-morpholin-4-yl-3-oxopropyl)-1H-imidazo[4,5-c]quinolin-1-yl]-2-methylpropan-2-ol], the melting point fell in the range of 118 to 119 °C. Take `COCc1nc2c(N)nc3cc(CCCNS(C)(=O)=O)ccc3c2n1CC(C)(C)O` [Example 109, N-{3-[4-Amino-1-(2-hydroxy-2-methylpropyl)-2-(methoxymethyl)-1H-imidazo[4,5-c]quinolin-7-yl]propyl}methanesulfonamide]: the melting point lay in the range of 205 to 207 °C. In the case of `CCOCc1nc2c(N)nc3cc(C=O)ccc3c2n1CC(C)(C)O` [Example 133, 4-Amino-2-(ethoxymethyl)-1-(2-hydroxy-2-methylpropyl)-1H-imidazo[4,5-c]quinoline-7-carbaldehyde], the melting point fell in the range of 203 to 205 °C. `CC(C)(O)Cn1c(CO)nc2c(N)nc3cc(CCS(C)(=O)=O)ccc3c21` [Example 105, 1-{4-Amino-2-(hydroxymethyl)-7-[2-(methylsulfonyl)ethyl]-1H-imidazo[4,5-c]quinolin-1-yl}-2-methylpropan-2-ol]: the melting point was 221 to 223 °C. Take `CCCCc1nc2c(N)nc3cc(/C=C/C(=O)OC)ccc3c2n1CC(C)C` [Example 8, Methyl(2E)-3-[4-amino-2-butyl-1-(2-methylpropyl)-1H-imidazo[4,5-c]quinolin-7-yl]prop-2-enoate]: the melting point was in the range of 193 to 194 °C. Molecule `CC(C)(O)Cn1c(CO)nc2c(N)nc3cc(CCCNS(C)(=O)=O)ccc3c21` [Example 116, N-{3-[4-Amino-2-(hydroxymethyl)-1-(2-hydroxy-2-methylpropyl)-1H-imidazo[4,5-c]quinolin-7-yl]propyl}methanesulfonamide] yielded a melting point of 202 to 205 °C.

`CCOCc1nc2c(N)nc3ccc(NC(=O)C(C)C)cc3c2n1CC(C)(C)O` [Example 117, N-[4-Amino-2-(ethoxymethyl)-1-(2-hydroxy-2-methylpropyl)-1H-imidazo[4,5-c]quinolin-8-yl]-2-methylpropanamide] showed a melting point of 259 to 261 °C. Consider `CCc1nc2c(N)nc3cc(CCS(C)(=O)=O)ccc3c2n1CC1CCOCC1` [Example 120], for which the melting point is 246.5 to 249 °C.

`CCOCc1nc2c(N)nc3cc(S(C)(=O)=O)ccc3c2n1CCCOC` [Example 7, 2-Ethoxymethyl-1-(3-methoxypropyl)-7-methylsulfonyl-1H-imidazo[4,5-c]quinolin-4-amine] gave a melting point of 166.5 to 167.5 °C. `CCc1nc2c(N)nc3cc(CCNS(C)(=O)=O)ccc3c2n1CC(C)(C)O` [Example 118, N-{2-[4-Amino-2-ethyl-1-(2-hydroxy-2-methylpropyl)-1H-imidazo[4,5-c]quinolin-7-yl]ethyl}methanesulfonamide] came in with a melting point of 149 to 152 °C. The molecule `CCc1nc2c(N)nc3cc(/C=C/C(=O)N(C)C)ccc3c2n1CC1CCOCC1` [Example 128, (2E)-3-[4-Amino-2-ethyl-1-(tetrahydro-2H-pyran-4-ylmethyl)-1H-imidazo[4,5-c]quinolin-7-yl]-N,N-dimethylprop-2-enamide] gave a melting point greater than 260 °C. Consider `CCc1nc2c(N)nc3cc(CCC#N)ccc3c2n1CC1CCOCC1` [Example 121, 3-[4-Amino-2-ethyl-1-(tetrahydro-2H-pyran-4-ylmethyl)-1H-imidazo[4,5-c]quinolin-7-yl]propanenitrile], for which the melting point fell in the range of 273 to 275 °C. In the case of `COC(=O)CCc1ccc2c(c1)nc(N)c1ncn(CC(C)(C)O)c12` [Example 16, Methyl 3-[4-amino-1-(2-hydroxy-2-methylpropyl)-1H-imidazo[4,5-c]quinolin-7-yl]propanoate], the melting point fell in the range of 201 to 205 °C.
